Results: patent publication US4960775A, “Pyrrolophthalazines” (May & Baker Limited, priority 1987, dated 1990)

Target: T1, rat hepatic microsomal HMG CoA reductase (Rattus norvegicus, UniProt P51639)
T1 construct: rat hepatic microsomal HMG CoA reductase activity in vitro; from tissue; host or cells: rat liver microsomes
T1 sequence (P51639 1-887): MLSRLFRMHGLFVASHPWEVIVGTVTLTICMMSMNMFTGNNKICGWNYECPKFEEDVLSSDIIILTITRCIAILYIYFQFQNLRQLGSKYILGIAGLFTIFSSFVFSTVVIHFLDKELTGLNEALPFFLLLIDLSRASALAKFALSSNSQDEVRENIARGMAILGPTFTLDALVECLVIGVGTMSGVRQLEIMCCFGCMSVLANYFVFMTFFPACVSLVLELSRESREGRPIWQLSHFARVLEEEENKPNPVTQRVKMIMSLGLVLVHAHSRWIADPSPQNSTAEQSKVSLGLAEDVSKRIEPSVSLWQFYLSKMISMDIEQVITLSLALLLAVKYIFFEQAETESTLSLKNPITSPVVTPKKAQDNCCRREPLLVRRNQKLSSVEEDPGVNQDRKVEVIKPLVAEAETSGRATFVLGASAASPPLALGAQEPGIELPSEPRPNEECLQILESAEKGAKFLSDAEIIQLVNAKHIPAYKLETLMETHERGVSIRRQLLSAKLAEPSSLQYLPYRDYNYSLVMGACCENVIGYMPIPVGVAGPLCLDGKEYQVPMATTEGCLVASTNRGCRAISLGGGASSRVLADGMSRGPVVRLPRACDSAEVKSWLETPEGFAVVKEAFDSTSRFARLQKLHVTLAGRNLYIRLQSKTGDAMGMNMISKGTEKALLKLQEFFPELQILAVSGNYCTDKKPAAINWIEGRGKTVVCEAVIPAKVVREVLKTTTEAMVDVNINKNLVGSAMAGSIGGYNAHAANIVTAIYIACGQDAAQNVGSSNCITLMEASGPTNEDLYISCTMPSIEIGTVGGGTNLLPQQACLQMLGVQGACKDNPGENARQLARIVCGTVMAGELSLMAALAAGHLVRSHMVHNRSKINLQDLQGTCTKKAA
Experiment: inhibition of rat hepatic microsomal HMG CoA reductase activity in vitro
Format: biochemical
Details: for inhibition at 0.027 µg/mL: 0.027 micrograms/ml; for inhibition at 0.082 µg/mL: 0.082 micrograms/ml; for inhibition at 0.24 µg/mL: 0.24 micrograms/ml; for inhibition at 0.74 µg/mL: 0.74 micrograms/ml; for inhibition at 2.22 µg/mL: 2.22 micrograms/ml; for inhibition at 6.66 µg/mL: 6.66 micrograms/ml; for inhibition at 0.25 µg/mL: 0.25 micrograms/ml; for inhibition at 6.67 µg/mL: 6.67 micrograms/ml; for inhibition at 20 µg/mL: 20.0 micrograms/ml
Text: In the table the concentrations of the test compounds are expressed in micrograms/ml.

inhibition at 0.027 µg/mL [%]	inhibition at 0.082 µg/mL [%]	inhibition at 0.24 µg/mL [%]	inhibition at 6.66 µg/mL [%]	inhibition at 0.27 µg/mL (0.27 micrograms/ml (so in the source)) [%]	Compound	inhibition at 0.74 µg/mL [%]	inhibition at 2.22 µg/mL [%]	inhibition at 0.25 µg/mL [%]	inhibition at 6.67 µg/mL [%]	inhibition at 20 µg/mL [%]
23	33	47	95		CCOC(=O)C[C@H](O)C[C@H](O)/C=C/c1c(-c2ccc(F)cc2)c2c3ccccc3cnn2c1C(C)C (relative stereo) [CA, ethyl erythro-(E)-7-{1-(4-fluorophenyl)-3-isopropylpyrrolo[2,1-a]phthalazin-2-yl)-3,5-dihydroxyhept-6-enoate]	65	85			
49	58	72	98		CC(C)c1c(/C=C/[C@@H](O)C[C@@H](O)CC(=O)O)c(-c2ccc(F)cc2)c2c3ccccc3cnn12 (relative stereo) [Compound DA, sodium erythro-(E)-7-{1-(4-fluorophenyl)-3-isopropylpyrrolo[2,1-a]phthalazin-2-yl}-3,5-dihydroxyhept-6-enoate]	86	94			
					CC(C)c1c(/C=C/C(O)CC(O)CC(=O)O)c(-c2ccccc2)c2c3ccccc3cnn12 (stereo not drawn) [Compound B, sodium (E)-3,5-dihydroxy-7-(3-isopropyl-1-phenylpyrrolo[2,1-a]phthalazin-2-yl)-hept-6-enoate]	56	74	38	90	98
	34	45	85	29	CC(C)c1c(/C=C/[C@@H](O)C[C@H](O)CC(=O)O)c(-c2ccc(F)cc2)c2c3ccccc3cnn12 (relative stereo) [Compound DB, sodium threo-(E)-7-{1-(4-fluorophenyl)-3-isopropylpyrrolo[2,1-a]-phthalazin-2-yl}-3,5-dihydroxyhept-6-enoate]	52	67			

Compound	inhibition at 0.027 µg/mL [%]	inhibition at 0.082 µg/mL [%]	inhibition at 0.24 µg/mL [%]	inhibition at 6.66 µg/mL [%]	inhibition at 0.27 µg/mL (0.27 micrograms/ml (so in the source)) [%]	inhibition at 0.74 µg/mL [%]	inhibition at 2.22 µg/mL [%]	inhibition at 0.25 µg/mL [%]	inhibition at 6.67 µg/mL [%]	inhibition at 20 µg/mL [%]
CC(C)c1c(/C=C/C(O)CC(O)CC(=O)O)c(-c2ccc(F)cc2)c2c3ccccc3cnn12 (stereo not drawn) [Compound D, sodium (E)-7-{1-(4-fluorophenyl)-3-isopropylpyrrolo[2,1-a]-phthalazin-2-yl)-3,5-dihydroxyhept-6-enoate]	47	50				66	76	61	90	
CC(C)c1c(/C=C/C(=O)CC(O)CC(=O)O)c(-c2ccc(F)cc2)c2c3ccccc3cnn12 (stereo not drawn) [Compound G, sodium (E)-7-{1-(4-fluorophenyl)-3-isopropylpyrrolo[2,1-a]phthalazin-2-yl)-3-hydroxy-5-oxohept-6-enoate]				77		29	52			92
